Where two headings read alike, the source gives them in different places.
Tests used:
HCV GT1b replicons = assay: Anti-HCV replicon activity, HCV GT1b stable transfection replicon cell line (luciferase); assay type: cell-based, hepatitis C virus (HCV) genotype (GT) 1b
Description: (§1) A hepatitis C virus (HCV) genotype (GT) 1b stable transfection replicon cell line system was used to determine the inhibitory activity of the compounds to the HCV GT1b replicons. In this experiment, the compound 06a (GS-7977) was used as a control compound to monitor the experimental quality.
(§2) [drawing 4] 2. Compound dilution: 20 mM mother liquor was prepared by using 100% DMSO, and the compound DMSO mother liquor was diluted and added to a 96-well experiment plate. The final concentration of the DMSO was 0.5%. In in-vitro anti-HCV activity experiments and cytotoxicity experiments, all compounds had the initial concentration of 20 microns, and were diluted by 5 times of dilution. The final concentration of the DMSO of 6 concentrations were 0.5%. 3. Cell treatment: HCV-1b replicon sub-cells were added to the above 96-well cell plate (8,000 cells/well), and then placed into an incubator of 37 DEG C. and 5% CO2 for culturing for 3 days. 4. Cell activity detection: a cell growth fluorescent titration detection reagent was added to each well; after the cells were cultured for 1 hour in the incubator of 37 DEG C. and 5% CO2, a spectrophotometer detection system Envision was used to detect a Fluorescence signal value. The original data, i.e, relative fluorescence units (RFUs), was used for the calculation of the cell toxicity of the compounds. 5. Anti-HCV replicon activity detection: a luciferase light-emitting substrate bright-GLO was added to each well, and a chemiluminescence detection system Envision was used for detecting a Luminescence signal value in 5 minutes. The original data, i.e., relative light units (RLUs), was used for the calculation of the inhibitory activity of the compounds. 6. Data processing: the RFUs obtained in step 1.3 were processed into a cell activity percentage by using the following formula: […]
The RLUs obtained in step 1.4 were processed into a inhibition percentage by using the following formula:
[formula] *CPD: signal values of compound wells HPE (high percent effect): 100% effective action control well signal value, with only DMEM culture solution in the wells; The ZPE (zero percent effect): noneffective control well signal value, with 0.5% DMSO to replace the compound.
(§3) The cell activity percentage and the inhibition percentage were respectively imported into GraphPad Prism software for data processing to obtain curves corresponding to the compounds and their values of cytotoxicity (CC50) and inhibitory activity (ECD50) to the HCV replicons.

[1] = system: HCV-1b replicon sub-cells; assay: Cytotoxicity in HCV-1b replicon cells (cell growth fluorescent titration); assay type: cell-based; details: HCV GT1b replicon cells, 3 days
Description: as §1, §2, §3

[2] = Simulated gastric liquid stability; assay type: in vitro ADME
[3] = Simulated intestinal fluid stability; assay type: in vitro ADME; details: test concentration 10 μM
Description: 2. Simulated Intestinal Fluid Stability (Test Concentration: 10 μM), See Table 3: […]

Human plasma stability = assay type: in vitro ADME; details: test concentration 2 μM
Description: 3. Human Plasma Stability (Test Concentration: 2 μM), See Table 4.

Human liver S9 stability = assay type: in vitro ADME; details: human liver S9, test concentration 1 μM
Description: 4. Human Liver S9 Stability Parameters (Test Concentration: 1 μM), See Table 5.

[4] = Cytotoxicity in HCV-1b replicon cells (cell growth fluorescent titration); assay type: cell-based; details: HCV genotype 1b stably transfected replicon cells, HCV GT1b replicon cells
Description: as §1, §2, §3

[5] = Hepatitis C virus, GT1B, 72 h, read-out: EC50 anti-HCV replicon activity, HCV GT1b replicons, 3 days, maximum test concentration 20 μM
[6] = read-out: EC50 anti-HCV replicon activity, HCV GT1b replicons, 3 days, maximum test concentration 20 μM

SMILES	% 0 h residual percentage [3] [%]	% 1 h residual percentage [3] [%]	% 2 h residual percentage [3] [%]	% 6 h residual percentage [3] [%]	% 24 h residual percentage [3] [%]	% 0 min residual percentage (Human plasma stability) [%]	% 10 min residual percentage (Human plasma stability) [%]	% 30 min residual percentage (Human plasma stability) [%]	% 60 min residual percentage (Human plasma stability) [%]	% 120 min residual percentage (Human plasma stability) [%]	CLlint(s9) (Human liver S9 stability) [µL/min/mg]	Remaining % (NCF = 1 h) (Human liver S9 stability) [%]	Remaining % (T = 1 h) (Human liver S9 stability) [%]	CLlint(s9) (Human liver S9 stability; scaled per kg) [mL/h/kg]	EC50 (HCV GT1b replicons; [5]) [µM]	CC50 at 3 days [4] [µM]	half-life at 1 μM (Human liver S9 stability) [h]	further results
CC(C)OC(=O)C(C)NP(=O)(OCc1ccccc1)OCC1OC(n2ccc(=O)[nH]c2=O)C(C)(F)C1O (mixture of isomers) [Compound 01]	100	1.69	0.08	0.00	0.00	100	98.9	81.7	80.9	74.9	7.2	67.4	56.2	1.51	–	–	–	EC50 (HCV GT1b replicons; HCV GT1b replicons, 3 days, maximum test concentration 20 μM, read-out: EC50 anti-HCV replicon activity): 6.12 µM; CC50 [1]: > 20 µM; % 0 h residual percentage ([2]; test concentration 10 μM): 100%; % 1 h residual percentage ([2]; test concentration 10 μM): 96.81%; % 2 h residual percentage ([2]; test concentration 10 μM): 105.99%; % 6 h residual percentage ([2]; test concentration 10 μM): 100.76%; % 24 h residual percentage ([2]; test concentration 10 μM): 71.32%; T1/2 (Human liver S9 stability): 1.61 h
Cc1ccccc1COP(=O)(N[C@@H](C)C(=O)OC(C)C)OC[C@H]1O[C@@H](n2ccc(=O)[nH]c2=O)[C@](C)(F)[C@@H]1O (single isomer, unassigned) [Unresolved enantiomer 02 of patent compounds in 2013]	100	0.63	0.08	0.00	0.00	100	73.3	69.5	62.8	58.8	72.6	64.7	1.1	15.34	10 to 20	> 20	0.158	EC50 (HCV GT1b replicons; [6]): 17.7 µM; % 0 h residual percentage ([2]; test concentration 10 μM): 100%; % 1 h residual percentage ([2]; test concentration 10 μM): 82.70%; % 2 h residual percentage ([2]; test concentration 10 μM): 82.45%; % 6 h residual percentage ([2]; test concentration 10 μM): 74.80%; % 24 h residual percentage ([2]; test concentration 10 μM): 41.56%
CCOc1ccc2ccc(=O)oc2c1 [7-Ethoxycumarin]	–	–	–	–	–	–	–	–	–	–	194.2	103.3	0.0	41.01	–	–	0.06	–
O=c1ccc2ccc(O)cc2o1 [7-Hydroxycoumarin]	–	–	–	–	–	–	–	–	–	–	7.2	67.4	56.2	1.51	–	–	1.61	–
O=C(O)CCCc1ccc(N(CCCl)CCCl)cc1 [Chlorambucil]	100	43.83	3.91	0.00	0.00	–	–	–	–	–	–	–	–	–	–	–	–	–
COc1ccccc1COP(=O)(N[C@@H](C)C(=O)OC(C)C)OC[C@H]1O[C@@H](n2ccc(=O)[nH]c2=O)[C@](C)(F)[C@@H]1O (stereo partly shown) [Compound 03]	–	–	–	–	–	–	–	–	–	–	–	–	–	–	> 20	> 20	–	–
Cc1ccc(COP(=O)(N[C@@H](C)C(=O)OC(C)C)OC[C@H]2O[C@@H](n3ccc(=O)[nH]c3=O)[C@](C)(F)[C@@H]2O)cc1 (stereo partly shown) [Compound 04]	–	–	–	–	–	–	–	–	–	–	–	–	–	–	10 to 20	> 20	–	EC50 (HCV GT1b replicons; [6]): 15.2 µM
COc1ccc(COP(=O)(N[C@@H](C)C(=O)OC(C)C)OC[C@H]2O[C@@H](n3ccc(=O)[nH]c3=O)[C@](C)(F)[C@@H]2O)cc1 (stereo partly shown) [Compound 05]	–	–	–	–	–	–	–	–	–	–	–	–	–	–	> 20	> 20	–	–
COc1ccc2[nH]c([S+]([O-])Cc3ncc(C)c(OC)c3C)nc2c1 (stereo not shown) [Omeprazole]	–	–	–	–	–	–	–	–	–	–	–	–	–	–	–	–	–	% 0 h residual percentage ([2]; 20 μM): 100%; % 1 h residual percentage ([2]; 20 μM): 5.24%; % 2 h residual percentage ([2]; 20 μM): 2.76%; % 6 h residual percentage ([2]; 20 μM): 0.20%; % 24 h residual percentage ([2]; 20 μM): 0.00%
CC(C)OC(=O)[C@H](C)NP(=O)(OC[C@H]1O[C@@H](n2ccc(=O)[nH]c2=O)[C@](C)(F)[C@@H]1O)Oc1ccccc1 (stereo partly shown) [Patent compound 06 in 2008]	100	0.00	0.00	0.00	0.00	100	78.8	70.9	72.0	65.3	6.0	64.0	58.6	1.27	< 10	> 20	1.92	EC50 (HCV GT1b replicons; [6]): 9.82 µM; % 0 h residual percentage ([2]; test concentration 10 μM): 100%; % 1 h residual percentage ([2]; test concentration 10 μM): 95.19%; % 2 h residual percentage ([2]; test concentration 10 μM): 98.47%; % 6 h residual percentage ([2]; test concentration 10 μM): 84.08%; % 24 h residual percentage ([2]; test concentration 10 μM): 49.36%
CC(C)[N+](C)(CCOC(=O)C1c2ccccc2Oc2ccccc21)C(C)C [Propantheline]	–	–	–	–	–	100	53.3	14.3	2.2	0.0	–	–	–	–	–	–	–	–
